The results in this text go back to ChEMBL document CHEMBL1641382, “New imidazoline/α(2)-adrenoceptors affecting compounds-4(5)-(2-aminoethyl)imidazoline (dihydrohistamine) derivatives. Synthesis and receptor affinity studies” (Bioorg Med Chem, 2011).

Bounds are passed on as bounds.

Broadly, the Ki is the equilibrium dissociation constant of an inhibitor or competing ligand from its target. A low value points to higher affinity. One may read the IC50 as the concentration that gives 50% inhibition. A low value points to inhibition by little substance.

Assay [1] deals with T1, Adrenergic receptor alpha-2 (Rattus norvegicus, UniProt P22086+P19328+P22909).
T1 sequence (P22086 whole entry): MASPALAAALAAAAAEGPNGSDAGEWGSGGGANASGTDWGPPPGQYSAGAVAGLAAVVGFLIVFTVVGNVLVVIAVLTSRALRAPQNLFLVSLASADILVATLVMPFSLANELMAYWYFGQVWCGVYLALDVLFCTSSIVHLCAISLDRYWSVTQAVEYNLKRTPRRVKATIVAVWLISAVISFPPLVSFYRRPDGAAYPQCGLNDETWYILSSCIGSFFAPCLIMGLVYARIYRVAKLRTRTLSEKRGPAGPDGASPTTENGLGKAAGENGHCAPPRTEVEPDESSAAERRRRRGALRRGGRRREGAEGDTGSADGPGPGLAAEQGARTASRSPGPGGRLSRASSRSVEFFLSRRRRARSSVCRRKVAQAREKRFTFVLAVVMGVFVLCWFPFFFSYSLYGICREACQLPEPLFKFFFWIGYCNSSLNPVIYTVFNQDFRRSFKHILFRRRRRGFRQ
T1 sequence (P19328 whole entry): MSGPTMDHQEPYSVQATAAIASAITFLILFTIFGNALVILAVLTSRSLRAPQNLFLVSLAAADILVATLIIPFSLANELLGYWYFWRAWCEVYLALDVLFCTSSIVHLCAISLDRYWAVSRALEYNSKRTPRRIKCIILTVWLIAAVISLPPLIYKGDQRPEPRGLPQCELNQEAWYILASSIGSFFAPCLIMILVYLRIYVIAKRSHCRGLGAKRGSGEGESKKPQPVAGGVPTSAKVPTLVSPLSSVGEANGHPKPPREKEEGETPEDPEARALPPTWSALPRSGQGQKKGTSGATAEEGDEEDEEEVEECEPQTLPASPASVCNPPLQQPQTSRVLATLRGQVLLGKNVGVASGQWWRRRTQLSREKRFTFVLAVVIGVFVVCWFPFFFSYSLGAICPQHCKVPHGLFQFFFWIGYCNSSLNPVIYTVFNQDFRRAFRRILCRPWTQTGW
T1 sequence (P22909 whole entry): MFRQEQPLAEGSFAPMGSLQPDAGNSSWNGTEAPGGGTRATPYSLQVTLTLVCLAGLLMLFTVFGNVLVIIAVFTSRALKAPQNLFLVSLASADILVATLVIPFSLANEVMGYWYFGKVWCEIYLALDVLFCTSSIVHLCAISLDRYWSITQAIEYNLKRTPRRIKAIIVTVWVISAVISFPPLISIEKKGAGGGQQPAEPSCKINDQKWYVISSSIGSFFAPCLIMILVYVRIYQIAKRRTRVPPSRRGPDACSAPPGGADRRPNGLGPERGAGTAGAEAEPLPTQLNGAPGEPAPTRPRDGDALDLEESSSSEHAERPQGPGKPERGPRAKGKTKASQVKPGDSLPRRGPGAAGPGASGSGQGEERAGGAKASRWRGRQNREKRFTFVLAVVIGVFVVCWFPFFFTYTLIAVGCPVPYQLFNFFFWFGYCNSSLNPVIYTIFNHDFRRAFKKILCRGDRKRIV
Nature of the assay: Inhibition of Sprague-Dawley rat alpha-2 adrenergic receptor.

The target of another assay is Nischarin (Rattus norvegicus, UniProt Q4G017). Briefly: Inhibition of Sprague-Dawley rat imidazoline I1 receptor.
A short description of assay [2]: Inhibition of Sprague-Dawley rat imidazoline I2 receptor.
Assay [3] can be described thus: Inhibition of Wistar rat imidazoline I2 receptor.

Nischarin, sequence (Q4G017 whole entry): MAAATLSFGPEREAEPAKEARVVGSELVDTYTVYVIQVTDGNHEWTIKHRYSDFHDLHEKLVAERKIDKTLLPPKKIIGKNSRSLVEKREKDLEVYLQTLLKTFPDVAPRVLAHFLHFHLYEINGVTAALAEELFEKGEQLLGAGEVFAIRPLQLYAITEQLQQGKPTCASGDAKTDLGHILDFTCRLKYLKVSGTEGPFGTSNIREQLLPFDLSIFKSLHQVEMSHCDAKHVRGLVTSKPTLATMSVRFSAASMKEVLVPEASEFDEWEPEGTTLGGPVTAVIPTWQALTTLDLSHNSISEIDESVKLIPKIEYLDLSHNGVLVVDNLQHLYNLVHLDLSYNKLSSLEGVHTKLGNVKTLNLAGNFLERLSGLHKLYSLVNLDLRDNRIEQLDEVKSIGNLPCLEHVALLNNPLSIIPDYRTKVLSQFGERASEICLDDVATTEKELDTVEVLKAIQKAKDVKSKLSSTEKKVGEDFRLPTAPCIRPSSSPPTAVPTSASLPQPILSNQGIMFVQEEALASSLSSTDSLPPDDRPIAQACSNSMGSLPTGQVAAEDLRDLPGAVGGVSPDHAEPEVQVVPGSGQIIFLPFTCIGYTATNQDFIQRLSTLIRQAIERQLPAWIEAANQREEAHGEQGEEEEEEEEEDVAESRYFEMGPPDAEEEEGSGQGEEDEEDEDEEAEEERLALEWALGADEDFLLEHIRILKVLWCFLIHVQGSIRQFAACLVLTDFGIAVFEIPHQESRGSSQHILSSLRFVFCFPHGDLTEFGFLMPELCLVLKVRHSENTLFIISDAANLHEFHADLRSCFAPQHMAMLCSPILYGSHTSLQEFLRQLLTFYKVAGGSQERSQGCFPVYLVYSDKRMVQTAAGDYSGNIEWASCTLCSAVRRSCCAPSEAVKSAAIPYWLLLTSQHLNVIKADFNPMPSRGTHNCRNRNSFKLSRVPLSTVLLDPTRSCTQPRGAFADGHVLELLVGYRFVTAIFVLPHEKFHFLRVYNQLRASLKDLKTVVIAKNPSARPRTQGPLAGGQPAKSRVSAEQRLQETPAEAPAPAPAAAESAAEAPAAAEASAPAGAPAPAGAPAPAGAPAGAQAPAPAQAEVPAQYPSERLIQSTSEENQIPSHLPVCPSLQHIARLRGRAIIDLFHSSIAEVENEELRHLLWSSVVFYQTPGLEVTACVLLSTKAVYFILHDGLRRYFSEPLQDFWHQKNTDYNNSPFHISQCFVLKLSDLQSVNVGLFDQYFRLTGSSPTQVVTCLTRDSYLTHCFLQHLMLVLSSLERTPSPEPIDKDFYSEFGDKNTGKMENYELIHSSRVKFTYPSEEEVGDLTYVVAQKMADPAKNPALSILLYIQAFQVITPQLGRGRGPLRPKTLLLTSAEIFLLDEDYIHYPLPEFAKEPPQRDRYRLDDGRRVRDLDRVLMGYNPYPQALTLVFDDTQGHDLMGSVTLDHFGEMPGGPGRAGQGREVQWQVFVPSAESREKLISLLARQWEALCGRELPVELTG

Take `Br.NCC[C@H]1CNC(Nc2cccnc2)=N1`: the Ki in assay [1] was 19.66 µM; in assay [2] it was above 1000 µM. For the same compound, the IC50 against Nischarin was above 1000 µM.
Turning to `Br.NCC[C@H]1CNC(NCc2ccccc2)=N1`, the values for the Ki in assay [1] and in assay [2] were 5.539 µM and 7.5 µM, respectively. This compound returned an IC50 at Nischarin of 101 µM.
The like results for `Br.NCC[C@H]1CNC(Nc2ccc(Cl)cc2Cl)=N1` were, in that order, 0.854 µM, 1.76 µM and 1.48 µM.
Consider `Br.Cc1cccc(NC2=N[C@H](CCN)CN2)n1`, for which the Ki in assay [1] was found to be 4.907 µM; in assay [2] it was 39.6 µM. On Nischarin, this compound showed an IC50 of 8.51 µM.
The corresponding values for `Br.NCC[C@H]1CNC(Nc2ccccc2Br)=N1` are 1.553 µM, 18.8 µM and 3.7 µM.
Turning to `Br.NCC[C@H]1CNC(Nc2c(F)cccc2F)=N1`, the Ki was found to be 13.06 µM in assay [1] and 21.8 µM in assay [2]. This compound had an IC50 at Nischarin of 93.1 µM.
Take `Br.NCC[C@H]1CNC(Nc2ccc(Br)cc2)=N1`: the Ki in assay [1] is 25.8 µM; in assay [2], 81.2 µM. Moreover, 59.4 µM corresponded to half-maximal inhibition on Nischarin (IC50).
On to `Br.COc1ccc(NC2=N[C@@H](CCN)CN2)cc1`, for which the figures for the Ki in assay [1] and in assay [2] were 9.376 µM and 24.9 µM, respectively. Moreover, the midpoint of inhibition against Nischarin, the IC50, lay at 79.8 µM.
For `Br.NCC[C@H]1CNC(Nc2cccc(Cl)c2)=N1`, the Ki was 7.018 µM in assay [1] and 20.3 µM in assay [2]. At Nischarin, this compound showed an IC50 of 33.9 µM.
Consider `Br.Cc1cccc(NC2=N[C@@H](CCN)CN2)n1`, for which the Ki in assay [1] was 0.445 µM; in assay [2], 15.7 µM. For the same compound, the IC50 on Nischarin was determined as 7.78 µM.
Take `Br.NCC[C@@H]1CNC(Nc2ccc(Cl)cc2Cl)=N1`: the Ki in assay [1] was 16.92 µM; in assay [2], 92.5 µM. At Nischarin, this compound had an IC50 of 6.33 µM.
The corresponding values for `Br.NCC[C@H]1CNC(Nc2cccc(C(F)(F)F)c2)=N1` are 3.007 µM, 12.7 µM and 1.31 µM.
Turning to `Br.NCC[C@@H]1CNC(Nc2cccc(C(F)(F)F)c2)=N1`, the inhibitory constant (Ki) in assay [1] stood at 26.69 µM; in assay [2] it was 47.7 µM. On Nischarin, this compound showed an IC50 of 1.25 µM.
Turning to `Br.NCC[C@H]1CNC(Nc2c(Cl)cccc2Cl)=N1`, the Ki was determined as 1.899 µM in assay [1] and 2.43 µM in assay [2]. In addition, the IC50 against Nischarin worked out at 7.75 µM.
The corresponding values for `Br.NCC[C@@H]1CNC(Nc2c(Cl)cccc2Cl)=N1` are 4.315 µM, 9.56 µM and 2.72 µM.
In the case of `Br.NCC[C@H]1CNC(Cc2ccccc2)=N1`, the Ki worked out at 23.32 µM in assay [1] and 59.4 µM in assay [2]. For the same compound, half-maximal inhibition at Nischarin (IC50) required 278 µM.
Turning to `Br.NCC[C@H]1CNC(Cc2cccc3ccccc23)=N1`, the Ki in assay [1] worked out at 0.964 µM; in assay [2], 1 µM. Moreover, the IC50 against Nischarin was above 100 µM.
Turning to `Br.NCC[C@@H]1CNC(Cc2cccc3ccccc23)=N1`, the Ki in assay [1] was 83.77 µM; in assay [2], 46.3 µM. Moreover, at Nischarin, the IC50 was 583 µM.
In the case of `Br.CCC1(C2=N[C@@H](CCN)CN2)Cc2ccccc2O1` (stereo partly drawn), the Ki in assay [1] is 20.35 µM; in assay [2] it was 2.55 µM. The same compound showed an IC50 against Nischarin of 1.01 µM.
For `Br.CCC1(C2=N[C@H](CCN)CN2)Cc2ccccc2O1` (stereo partly drawn), the Ki in assay [1] was 0.869 µM; in assay [2], 18.9 µM. On Nischarin, this compound gave an IC50 of 32.5 µM.
Turning to `Br.NCC[C@H]1CNC(C2COc3ccccc3O2)=N1` (stereo partly drawn), the Ki in assay [1] was determined as 24.02 µM; in assay [2] it was 8.12 µM. The compound also came in with an IC50 against Nischarin of 5.11 µM.
In the case of `Br.NCC[C@@H]1CNC(C2COc3ccccc3O2)=N1` (stereo partly drawn), the Ki in assay [1] turned out to be 5.412 µM; in assay [2], 9.61 µM. The compound further showed an IC50 at Nischarin of 2.65 µM.
On to `Br.NCC[C@H]1CNC(CN(Cc2ccccc2)c2ccccc2)=N1`, for which the Ki came to 481.8 µM in assay [1] and 19.1 µM in assay [2]. Also, at Nischarin, it took 11.6 µM to reach half-maximal inhibition (IC50).
On to `Br.NCC[C@H]1CNC(c2ccccc2)=N1`, for which the Ki in assay [1] stood at 43.07 µM; in assay [2], 3.56 µM. Further, on Nischarin, the IC50 stood at 72.9 µM.
In the case of `Br.NCC[C@H]1CNC(c2ccccc2F)=N1`, the Ki is 178.6 µM in assay [1] and 27.6 µM in assay [2]. Further, the IC50 on Nischarin came out at 117 µM.
On to `Br.NCC[C@H]1CNC(/C=C/c2ccccc2)=N1`, for which the Ki is 3.896 µM in assay [1] and 11.2 µM in assay [2]. Half-maximal inhibition against Nischarin (IC50) was put at 17.2 µM.
The corresponding values for `Cl.Cl.NCC[C@H]1CNC(NC(C2CC2)C2CC2)=N1` are 5.727 µM, 28 µM and above 100 µM.
`NCCCCN=C(N)N` [AGMATINE] yielded a Ki in assay [3] of 417 µM.
As for `Clc1cccc(Cl)c1NC1=NCCN1` [CLONIDINE], the Ki in assay [2] came out at 0.364 µM.
